According to US9938245B2 (THE TRUSTEES OF COLUMBIA UNIVERSITY IN THE CITY OF NEW YORK, priority 2014, dated 2018):

What was measured:
[1] = system: BJeLR; assay: Concentration-dependent growth inhibition (alamar blue), isogenic BJ cell lines; type: cell-based, human
[2] = system: HT1080; assay: Concentration-dependent growth inhibition (alamar blue), HT1080; type: cell-based, human; details: 2 days
Method: Assay plates were prepared by seeding either BJ-derived cell lines or HT-1080 cells at 1,500 cells per well concentration in 36 μL growth medium. Cells in the assay plates were treated with compounds by transferring 4 μL volume from the compound plate. The final concentration of compound was typically 30 μM to 0.9 nM in this 16-point, 2-fold dilution series. Assay plates were returned to the culture incubator and maintained for 2 days before adding alamar blue. […] Plates were incubated further for 16 hours to allow reduction of alamar blue, which results in the generation of red fluorescence. The fluorescence intensity was determined using a Victor 3 plate reader (Perkin Elmer) with a 535 nm excitation filter and a 590 nm emission filter.
Percent growth inhibition (% GI) was calculated from the following formula using the alamar blue fluorescence intensity values. % GI=100*(1−(X−N)/(P−N)) X, cells treated with lethal compound; N, no cells—growth media only; P, no lethal compound—cells only.
The concentration-dependent curves were generated using Prism software. Percent growth inhibition, measured using alamar blue is shown. Error bars indicate one standard deviation of triplicate data.
The results are shown in FIG. 17 and in Table 7 below.

[3] = system: HT-1080 tumor; assay: HT-1080 tumor formation, mouse xenograft model; type: in vivo, athymic nude mice; details: PE 40 mg/kg SC then 30 mg/kg tail vein; erastin SC
Method: The images show representative tumors in live mice from each treatment group.
Athymic nude mice (8 weeks, Charles River) were injected with 4 million HT-1080 cells subcutaneously (SC). […] Two days later, the SC injection was repeated. Three days later, […] of vehicle or 30 mg/kg PE were administered to the mice through a tail vein. The tail vein injection was repeated three times more, once every other day, before the final tumor size was measured in both groups.
Instead, erastin was injected through the SC route using the same schedule as PE until the tumor size was measured.

[4] = system: BJeH, BJeHLT, BJeLR, and DRD; assay: RSL testing in 4 BJ-derived cell lines; type: cell-based, human
[5] = system: HT-1080 cells; assay: Modulatory profiling with lethal molecules and cell death modulators; type: cell-based, human
[6] = mouse
[7] = molecular target: T1, system xc− (Homo sapiens, UniProt Q9UPY5); assay: Glutamate release assay (system xc− activity); details: read-out: IC50 glutamate release; CCF-STTG1 human astrocytoma cells, 2 hour incubation
T1 sequence (Q9UPY5 1-501): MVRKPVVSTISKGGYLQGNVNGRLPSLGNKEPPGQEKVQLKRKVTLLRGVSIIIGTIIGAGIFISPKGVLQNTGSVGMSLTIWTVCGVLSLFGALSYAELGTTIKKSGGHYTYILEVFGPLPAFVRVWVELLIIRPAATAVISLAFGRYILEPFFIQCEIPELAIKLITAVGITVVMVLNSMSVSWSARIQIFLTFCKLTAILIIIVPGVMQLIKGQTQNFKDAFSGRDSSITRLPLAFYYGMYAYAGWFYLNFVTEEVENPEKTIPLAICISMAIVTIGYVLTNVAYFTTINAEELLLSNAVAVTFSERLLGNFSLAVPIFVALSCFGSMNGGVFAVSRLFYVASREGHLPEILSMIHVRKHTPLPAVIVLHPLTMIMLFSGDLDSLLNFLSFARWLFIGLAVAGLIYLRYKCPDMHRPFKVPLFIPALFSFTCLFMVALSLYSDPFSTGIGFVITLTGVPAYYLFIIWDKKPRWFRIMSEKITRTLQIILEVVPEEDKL
T1 sequence (P08195 1-529 partner): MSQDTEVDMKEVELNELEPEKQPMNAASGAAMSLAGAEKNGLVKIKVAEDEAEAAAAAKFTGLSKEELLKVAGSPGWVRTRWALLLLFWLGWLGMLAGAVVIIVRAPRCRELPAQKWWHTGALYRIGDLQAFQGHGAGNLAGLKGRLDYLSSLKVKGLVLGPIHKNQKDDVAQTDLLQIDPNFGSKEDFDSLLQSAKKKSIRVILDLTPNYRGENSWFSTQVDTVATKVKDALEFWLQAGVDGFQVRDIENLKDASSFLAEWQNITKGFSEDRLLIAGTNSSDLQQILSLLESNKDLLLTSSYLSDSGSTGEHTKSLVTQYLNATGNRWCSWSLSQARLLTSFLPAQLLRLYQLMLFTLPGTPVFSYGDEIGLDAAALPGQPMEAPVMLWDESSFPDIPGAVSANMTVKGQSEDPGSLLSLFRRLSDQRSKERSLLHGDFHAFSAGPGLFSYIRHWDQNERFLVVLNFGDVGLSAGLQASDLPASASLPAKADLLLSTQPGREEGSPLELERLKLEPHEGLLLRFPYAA

In the case of `CC(C)Oc1ccc(CN2CCNCC2)cc1-n1c(CN2CCN(C(=O)COc3ccc(Cl)cc3)CC2)nc2ccccc2c1=O` [PE, piperazine erastin], the “Selectivity (IC50BJeH/IC50BJeLR)” value [1] is reported as 3, the IC50 ([1]; 2 days, alamar blue) is reported as 300 nM and the IC50 [2] is reported as 1200 nM. For the same compound, the “preventing HT-1080 tumor formation” value [3] was “improved efficacy over erastinin (ERA)”, the “RSL phenotype (selective lethality in oncogenic-RAS cells)” value [4] was “retained the RSL phenotype” and the “form of cell death (modulatory profile)” value [5] was “induced a similar form of cell death as erastin”. For the same compound, the “Half-life in liver microsomes” value [6] was 55 min and the IC50 [7] was 800 nM.
